US11518760B2 (Liverpool School of Tropical Medicine, priority 2017, dated 2022)

Each compound was assayed on C6/36 Aedes albopictus cell line infected with Wolbachia pipientis (Wolbachia strain wAlbB) (assay: In vitro insect cell line assay (anti-Wolbachia screen, SYTO 11 high content imaging)). Conditions: 168 h; C6/36 Aedes albopictus cells infected with Wolbachia pipientis wAlbB, 7 days incubation, SYTO 11 imaging; read-out: In vitro anti-Wolbachia activity.
Assay type: cell-based
Method: A C6/36 Aedes albopictus cell line infected with Wolbachia pipientis (Wolbachia strain wAlbB) derived from Aa23 A. albopictus cell line (O'Neill et al., 1997; Insect Mol Biol; Turner et al., (2006) J. Immunol. 7:1240-1249) was used to screen compounds. Cells were cultured in Leibovitz's L15+L-glutamine supplemented with heat-inactivated Foetal Calf Serum (HI-FCS), non-essential amino acids and tryptose phosphate broth. Culture medium was filter-sterilized through a 0.2 μm filter and stored at 4° C. Compounds were provided as 10 mM stocks in DMSO, diluted to 50 μM working stock to give final concentration of 5 μM on the test plate. Concentrated stocks were frozen at −20° C.
Prior to use in the screening assay, cell cultures were sub-passaged (6 days prior) to provide ˜90% confluent cells on Day 0 of screening assay. On Day 0 (assay set-up), the medium was removed from the stock culture flask and replaced with fresh medium. The cells were detached by scraping and cell density was calculated using an automated cell counter. The cells were then diluted at working density and aliquoted at 90 μl to each well of a Cell Carrier 384 well plate (Perkin Elmer). Cell plates were incubated at 26° C.
Control solution (DMSO-medium) was dispensed at 10 μl per well for “untreated” wells. Test solution (Drug-DMSO) was also dispensed at 10 μl (from working plate) per well for “treated” wells. The plates were incubated at 26° C., inside plastic wallet in incubator, for 7 days.
On Day 7, 25 μl of staining medium/dye (SYTO 11, Life Technologies) was added to each sample well and allowed to stain for 15 minutes in the dark. All the medium was removed from each sample well without disturbing the cells and replaced with 100 μl of fresh medium. Plates were imaged on the Operetta High Content Imaging system (Perkin Elmer) and analyzed using texture analysis through Harmony software (Perkin Elmer). The cell-based screen and analysis are described in detail in Clare et al. (2014) J Biomol Screen.

Q: With CC(Nc1ncnc2c(C#N)csc12)c1ccccc1C(F)(F)F (stereo not shown) [Example 108, 4-((1-(2-(trifluoromethyl)phenyl)ethyl)amino)thieno[3,2-d]pyrimidine-7-carbonitrile] as the compound, how does the EC50 read?
A: 1000 to 100000 nM

Q: FC(F)(F)c1cccc(CNc2ncnc3ccsc23)c1 [Example 81] was tested. Which EC50 did it give?
A: 1000 to 100000 nM

Q: How did the EC50 turn out when [2H]c1cc2nc(C)nc(N(C)C(C)c3ccccc3C(F)(F)F)c2s1 (stereo not shown) [Example 71] was run?
A: 10 to 100 nM

Q: For FC(F)C1CN(c2nc(NCc3ccccc3C(F)(F)F)c3cccnc3n2)CCO1 (stereo not shown) [Example 284, 2-(2-(difluoromethyl)morpholino)-N-(2-(trifluoromethyl)benzyl)pyrido[2,3-d]pyrimidin-4-amine], which EC50 is on record?
A: < 0.01 nM

Q: For FC(F)(F)c1ccccc1CNc1nc(Cl)nc2ccccc12 [Example 57, 2-chloro-N-(2-(trifluoromethyl)benzyl)quinazolin-4-amine], which EC50 is on record?
A: 10 to 100 nM

Q: CS(=O)(=O)c1ccccc1CNc1ncnc2ccsc12 [Example 97, N-(2-(methylsulfonyl)benzyl)thieno[3,2-d]pyrimidin-4-amine] was tested. Which EC50 did it give?
A: 100 to 1000 nM

Q: How did the EC50 turn out when FC1(F)CN(c2nc(NCc3cccnc3C(F)(F)F)c3cccnc3n2)C1 [Example 201, 2-(3,3-difluoroazetidin-1-yl)-N-((2-(trifluoromethyl)pyridin-3-yl)methyl)pyrido[2,3-d]pyrimidin-4-amine] was run?
A: 10 to 100 nM

Q: For FC(F)(F)c1ncccc1CNc1nc(N2CCC(Cl)C2)nc2ncccc12 (stereo not shown) [Example 265, 2-(3-chloropyrrolidin-1-yl)-N-((2-(trifluoromethyl)pyridin-3-yl)methyl)pyrido[2,3-d]pyrimidin-4-amine], which EC50 is on record?
A: < 0.01 nM

Q: With FC(F)(F)c1ccccc1CNc1nc(NCCN2CCCC2)nc2ccsc12 [Example 91, N^2-(2-(pyrrolidin-1-yl)ethyl)-N^4-(2-(trifluoromethyl)benzyl)thieno[3,2-d]pyrimidine-2,4-diamine] as the compound, how does the EC50 read?
A: 1000 to 100000 nM

Q: Which EC50 does the source give for Cc1nc(N(C)C(C)c2ccccc2C(F)(F)F)c2sc(C)cc2n1 (stereo not shown) [Example 69, N,2,6-trimethyl-N-(1-(2-(trifluoromethyl)phenyl)ethyl)thieno[3,2-d]pyrimidin-4-amine] here?
A: 1000 to 100000 nM

Q: How did the EC50 turn out when FC(F)(F)c1ccccc1CNc1nc(N2CC3CC2CO3)nc2ncccc12 (stereo not shown) [Example 267, 2-(2-oxa-5-azabicyclo[2.2.1]heptan-5-yl)-N-(2-(trifluoromethyl)benzyl)pyrido[2,3-d]pyrimidin-4-amine] was run?
A: < 0.01 nM

Q: With CC(C)Nc1nc(N2CCCCC2c2ccccc2C(F)(F)F)c2cccnc2n1 (stereo not shown) [Example 185, N-isopropyl-4-(2-(2-(trifluoromethyl)phenyl)piperidin-1-yl)pyrido[2,3-d]pyrimidin-2-amine] as the compound, how does the EC50 read?
A: 1000 to 100000 nM

Q: For CS(=O)(=O)C1CCN(c2nc(NCc3cccnc3C(F)(F)F)c3cccnc3n2)CC1 [Example 232, 2-(4-(methylsulfonyl)piperidin-1-yl)-N-((2-(trifluoromethyl)pyridin-3-yl)methyl)pyrido[2,3-d]pyrimidin-4-amine], which EC50 is on record?
A: 100 to 1000 nM

Q: How did the EC50 turn out when FC(F)(F)c1ccccc1CNc1nc(N2CCCC2)nc2ccsc12 [Example 93, 2-(pyrrolidin-1-yl)-N-(2-(trifluoromethyl)benzyl)thieno[3,2-d]pyrimidin-4-amine] was run?
A: 100 to 1000 nM

Q: Which EC50 does the source give for FC(F)(F)c1ncccc1CNc1nc(N2CC3CC(C2)O3)nc2ncccc12 [Example 293, 2-(6-oxa-3-azabicyclo[3.1.1]heptan-3-yl)-N-((2-(trifluoromethyl)pyridin-3-yl)methyl)pyrido[2,3-d]pyrimidin-4-amine] here?
A: 1 to 10 nM

Q: FC(F)(F)c1ncccc1CNc1ncnc2ncccc12 [Example 170, N-((2-(trifluoromethyl)pyridin-3-yl)methyl)pyrido[2,3-d]pyrimidin-4-amine] was tested. Which EC50 did it give?
A: 1000 to 100000 nM

Q: CC(C)Nc1nc(NCc2ccc(S(C)(=O)=O)cc2)c2ccccc2n1 [Example 110, N^2-isopropyl-N^4-(4-(methylsulfonyl)benzyl)quinazoline-2,4-diamine] was tested. Which EC50 did it give?
A: 1000 to 100000 nM

Q: How did the EC50 turn out when CC(C)Nc1nc(N2CCC2c2ccccc2C(F)(F)F)c2cccnc2n1 (stereo not shown) [Example 183, N-isopropyl-4-(2-(2-(trifluoromethyl)phenyl)azetidin-1-yl)pyrido[2,3-d]pyrimidin-2-amine] was run?
A: 1 to 10 nM

Q: How did the EC50 turn out when Cc1nc(NCc2ccc(F)cc2C(F)(F)F)c2ccccc2n1 [Example 73, N-(4-fluoro-2-(trifluoromethyl)benzyl)-2-methylquinazolin-4-amine] was run?
A: 100 to 1000 nM

Q: With CC(C)Nc1nc(NCc2cccc(F)c2)c2sccc2n1 [Example 14, N^4-(3-fluorobenzyl)-N^2-isopropylthieno[3,2-d]pyrimidine-2,4-diamine] as the compound, how does the EC50 read?
A: 100 to 1000 nM

Q: For FC(F)(F)c1ccccc1CNc1nc(N2CCC(Cl)CC2)nc2ncccc12 [Example 198, 2-(4-chloropiperidin-1-yl)-N-(2-(trifluoromethyl)benzyl)pyrido[2,3-d]pyrimidin-4-amine], which EC50 is on record?
A: 1 to 10 nM

Q: CC1COC[C@@H](C)N1c1nc(NCc2cccnc2C(F)(F)F)c2cccnc2n1 (stereo partly drawn) [Example 275, 2-((3R)-3,5-dimethylmorpholino)-N-((2-(trifluoromethyl)pyridin-3-yl)methyl)pyrido[2,3-d]pyrimidin-4-amine] was tested. Which EC50 did it give?
A: 0.01 to 1 nM

Q: With CC1COCCN1c1nc(N2CCC2c2cccnc2C(F)(F)F)c2cccnc2n1 (stereo not shown) [Example 219, 3-methyl-4-(4-(2-(2-(trifluoromethyl)pyridin-3-yl)azetidin-1-yl)pyrido[2,3-d]pyrimidin-2-yl)morpholine] as the compound, how does the EC50 read?
A: 1 to 10 nM

Q: How did the EC50 turn out when CC1(C)COCCN1c1nc(NCc2ccccc2C(F)(F)F)c2cccnc2n1 [Example 246, 2-(3,3-dimethylmorpholino)-N-(2-(trifluoromethyl)benzyl)pyrido[2,3-d]pyrimidin-4-amine] was run?
A: 100 to 1000 nM

Q: For CN1CCN(c2nc(NCc3ccccc3C(F)(F)F)c3sccc3n2)CC1 [Example 95, 2-(4-methylpiperazin-1-yl)-N-(2-(trifluoromethyl)benzyl)thieno[3,2-d]pyrimidin-4-amine], which EC50 is on record?
A: 1000 to 100000 nM

Q: With FC(F)C1CN(c2nc(NCc3ccccc3C(F)(F)F)c3cccnc3n2)C1 [Example 276, 2-(3-(difluoromethyl)azetidin-1-yl)-N-(2-(trifluoromethyl)benzyl)pyrido[2,3-d]pyrimidin-4-amine] as the compound, how does the EC50 read?
A: < 0.01 nM

Q: With CC(C)Nc1nc(NCc2ccccc2S(C)(=O)=O)c2ncccc2n1 [Example 122, N^2-isopropyl-N^4-(2-(methylsulfonyl)benzyl)pyrido[3,2-d]pyrimidine-2,4-diamine] as the compound, how does the EC50 read?
A: 1000 to 100000 nM

Q: For CC(C)Nc1nc(NCc2ccc(C(F)(F)F)cc2)c2cccnc2n1 [Example 129, N^2-isopropyl-N^4-(4-(trifluoromethyl)benzyl)pyrido[2,3-d]pyrimidine-2,4-diamine], which EC50 is on record?
A: 100 to 1000 nM

Q: CC1CCCN(c2nc(NCc3cccnc3C(F)(F)F)c3cccnc3n2)C1 (stereo not shown) [Example 311, 2-(3-methylpiperidin-1-yl)-N-((2-(trifluoromethyl)pyridin-3-yl)methyl)pyrido[2,3-d]pyrimidin-4-amine] was tested. Which EC50 did it give?
A: 0.01 to 1 nM

Q: How did the EC50 turn out when FC(F)(F)c1ncccc1CNc1nc(NC2COC2)nc2ncccc12 [Example 158, N^2-(oxetan-3-yl)-N^4-((2-(trifluoromethyl)pyridin-3-yl)methyl)pyrido[2,3-d]pyrimidine-2,4-diamine] was run?
A: 100 to 1000 nM

Q: Which EC50 does the source give for FC1(F)CCN(c2nc(N3CCC3c3ccccc3C(F)(F)F)c3cccnc3n2)C1 (stereo not shown) [Example 215, 2-(3,3-difluoropyrrolidin-1-yl)-4-(2-(2-(trifluoromethyl)phenyl)azetidin-1-yl)pyrido(2,3-d]pyrimidine] here?
A: 10 to 100 nM

Q: Which EC50 does the source give for FC(F)(F)c1ccccc1CNc1nc(N2CCC(C(F)(F)F)C2)nc2ncccc12 (stereo not shown) [Example 266, N-(2-(trifluoromethyl)benzyl)-2-(3-(trifluoromethyl)pyrrolidin-1-yl)pyrido[2,3-d]pyrimidin-4-amine] here?
A: 1 to 10 nM

Q: With CC1CN(c2nc(NCc3cccnc3C(F)(F)F)c3cccnc3n2)CCO1 (stereo not shown) [Example 241, 2-(2-methylmorpholino)-N-((2-(trifluoromethyl)pyridin-3-yl)methyl)pyrido[2,3-d]pyrimidin-4-amine] as the compound, how does the EC50 read?
A: 0.01 to 1 nM

Q: How did the EC50 turn out when CN(C)c1nc(NCc2c(F)cccc2C(F)(F)F)c2cccnc2n1 [Example 169, N^4-(2-fluoro-6-(trifluoromethyl)benzyl)-N^2,N^2-dimethylpyrido[2,3-d]pyrimidine-2,4-diamine] was run?
A: 100 to 1000 nM

Q: CC(C)Nc1nc(N(C)Cc2cccnc2C(F)(F)F)c2cccnc2n1 [Example 160, N^2-isopropyl-N^4-methyl-N4-((2-(trifluoromethyl)pyridin-3-yl)methyl)pyrido[2,3-d]pyrimidine-2,4-diamine] was tested. Which EC50 did it give?
A: 10 to 100 nM

Q: COc1ccc(CNc2nc(NC(C)C)nc3ccccc23)cc1 [Example 138, N^2-isopropyl-N^4-(4-methoxybenzyl)quinazoline-2,4-diamine] was tested. Which EC50 did it give?
A: 1000 to 100000 nM

Q: FC(F)(F)c1ccccc1CNc1nc(N2CCOCC23CCC3)nc2ncccc12 [Example 285, 2-(8-oxa-5-azaspiro[3.5]nonan-5-yl)-N-(2-(trifluoromethyl)benzyl)pyrido[2,3-d]pyrimidin-4-amine] was tested. Which EC50 did it give?
A: 10 to 100 nM
